Data as given in ChEMBL document CHEMBL1201862, “PubChem BioAssay data set” (2004).
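48-hour exposure; five concentrations; linearly interpolated endpoints. At the GI50, growth is halved.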 Activity calls are given as the source filed them. Cut-off read from the data, not from the text of the source: active = GI50 up to about 1.1 µM and inactive = higher.

How the values were obtained:
Assay in all cases: inhibition of tumour cell growth, NCI panel, 48 h
[1] = system: M19-MEL
[2] = system: HT-29
[3] = system: EKVX
[4] = system: SK-MEL-2
[5] = system: OVCAR-8
[6] = system: M14
[7] = system: A549
[8] = system: K562
[9] = system: SN12C
[10] = system: SF-295
[11] = system: MOLT-4
[12] = system: IGROV-1
[13] = system: NCI-H522
[14] = system: HL-60
[15] = system: HCT-116
[16] = system: UACC-257
[17] = system: SF-539
[18] = system: HOP-92
[19] = system: HCC 2998

Measured: GI50

Cc1nn2c(=O)n(-c3cccc(-n4nnc5c(-c6ccccc6)c(C)nn5c4=O)c3C)nnc2c1-c1ccccc1
inactive: [1] 23.6 µM | [2] 35.7 µM | [3] 38.9 µM | [4] 3.33 µM | [5] 24.7 µM | [6] 15.2 µM | [7] 33.3 µM | [8] 20.1 µM | [9] 17.1 µM | [10] 44.9 µM | [11] 11.1 µM | [12] 22.4 µM | [13] 15.5 µM | [14] 18.2 µM | [15] 15.8 µM | [16] 22.4 µM | [17] 24.4 µM | [18] 55.5 µM | [19] 20.5 µM

CCCCCCCCCC(=O)Oc1cccc2onc(C)c12
inactive: [1] > 100 µM | [2] > 100 µM | [3] > 100 µM | [4] > 100 µM | [5] > 100 µM | [6] > 100 µM | [7] > 100 µM | [8] 73.1 µM | [9] > 100 µM | [10] > 100 µM | [11] 66.8 µM | [12] > 100 µM | [13] > 100 µM | [14] 19.4 µM | [15] > 100 µM | [16] > 100 µM | [17] > 100 µM | [18] > 100 µM | [19] 79.1 µM

Oc1ncnc2c1nnn2CCCCCCCCCCCCn1nnc2c(O)ncnc21
inactive: [1] > 100 µM | [2] > 100 µM | [3] 21.3 µM | [4] 23.4 µM | [5] 41.5 µM | [6] > 100 µM | [7] 36.9 µM | [8] > 100 µM | [9] > 85.5 µM | [10] 14.5 µM | [11] > 100 µM | [12] 22.2 µM | [13] 20.4 µM | [14] > 45.4 µM | [15] 18.2 µM | [16] 20.3 µM | [17] 31.7 µM | [18] 30 µM | [19] > 78.7 µM

COc1ccc([C@H]2CC(=O)N3CCCC3N2)cc1 (some centres not stated)
inactive: [1] > 100 µM | [2] > 100 µM | [3] > 100 µM | [4] > 100 µM | [5] > 100 µM | [6] > 100 µM | [7] > 100 µM | [8] > 100 µM | [9] > 100 µM | [10] > 100 µM | [11] > 100 µM | [12] > 100 µM | [13] > 100 µM | [14] > 100 µM | [15] > 100 µM | [16] > 100 µM | [17] > 100 µM | [18] > 100 µM | [19] > 100 µM

CC(C)(C)NN=C1C(C)(C)C(=NNC(C)(C)C)C1(C)C
inactive: [1] > 100 µM | [2] > 100 µM | [5] > 100 µM | [6] > 100 µM | [7] > 100 µM | [8] > 100 µM | [9] > 100 µM | [10] > 100 µM | [11] > 100 µM | [12] > 100 µM | [13] > 100 µM | [14] > 100 µM | [15] > 100 µM | [16] > 100 µM | [17] > 100 µM | [18] > 100 µM | [19] > 100 µM

COC1=CC(=O)C2C(C1=O)C(c1ccc(Cl)cc1)[C@@H]2C (some centres not stated)
inactive: [1] 33.7 µM | [2] > 100 µM | [3] 26.3 µM | [4] 37.4 µM | [5] 20.6 µM | [6] 25.7 µM | [7] 34 µM | [8] 28.3 µM | [10] 93.1 µM | [11] 31.6 µM | [12] 55.3 µM | [13] 15.2 µM | [14] 22.2 µM | [15] 15.7 µM | [16] 20.6 µM | [17] 22.8 µM | [18] 24.5 µM | [19] 45.5 µM

C=C(C)C1CCC2(C)CC1c1c(c(C)cc3c1[nH]c1ccccc13)O2 (configuration not stated)
inactive: [1] > 25 µM | [2] > 25 µM | [4] > 25 µM | [5] > 25 µM | [6] > 25 µM | [7] > 25 µM | [8] 12 µM | [9] > 25 µM | [11] 17.5 µM | [12] > 25 µM | [13] 15 µM | [14] 11.9 µM | [15] > 25 µM | [17] > 25 µM | [18] > 25 µM | [19] > 25 µM

CC(C)(C)OC(=O)NC(CO)c1cccc(OCc2ccccc2)c1 (configuration not stated)
inactive: [1] > 89.7 µM | [2] > 100 µM | [3] 8.39 µM | [4] > 100 µM | [5] > 100 µM | [6] 41.9 µM | [7] 42.8 µM | [8] 36 µM | [9] > 100 µM | [10] 63.4 µM | [11] 30.3 µM | [12] > 100 µM | [13] 46 µM | [14] 13.9 µM | [15] > 65.2 µM | [16] 25.9 µM | [17] > 100 µM | [18] 22.1 µM | [19] > 100 µM

COc1ccc(/C=C\c2cc(OC)c(OC(C)=O)c(OC)c2)cc1
inactive: [1] 8.91 µM | [2] 12.4 µM | [3] 15.6 µM | [4] 7.53 µM | [5] 8.89 µM | [6] 18.2 µM | [7] 5.18 µM | [8] 2.03 µM | [9] 7.21 µM | [11] 6.43 µM | [12] 29.7 µM | [13] 15.5 µM | [15] 8.53 µM | [16] 17.3 µM | [17] 2.32 µM | [18] 19.1 µM | [19] 10.7 µM

CC1CCC(O)C(C(O)CC2CC(=O)N(C)C(=O)C2)C1 (configuration not stated)
inactive: [1] > 100 µM | [2] > 100 µM | [3] > 100 µM | [5] > 100 µM | [6] > 100 µM | [7] > 100 µM | [8] > 100 µM | [9] > 100 µM | [10] > 100 µM | [11] > 100 µM | [12] > 100 µM | [13] > 100 µM | [14] > 100 µM | [15] > 100 µM | [16] > 100 µM | [17] > 100 µM | [18] > 100 µM | [19] > 100 µM

O=NN(CCCl)C(=O)N[C@H]1CC[C@@H](C(=O)O)CC1
inactive: [1] > 100 µM | [2] > 100 µM | [3] > 100 µM | [4] > 100 µM | [5] > 100 µM | [6] > 100 µM | [7] 89.7 µM | [8] 91 µM | [9] > 100 µM | [10] 52.6 µM | [11] 32.2 µM | [12] > 100 µM | [13] 23 µM | [14] 33.7 µM | [15] > 100 µM | [16] > 100 µM | [17] 29.6 µM | [18] > 76 µM | [19] > 100 µM

Nc1ccc(C(=O)N/C(=C\c2cccc([N+](=O)[O-])c2)c2nc3c4c(ccc3[nH]2)C(=O)c2ccccc2C4=O)cc1
inactive: [1] > 100 µM | [2] 62.5 µM | [3] 42.6 µM | [4] 91.6 µM | [5] 25 µM | [6] > 100 µM | [7] 18.6 µM | [8] 56 µM | [9] > 100 µM | [10] 14 µM | [11] 3.94 µM | [12] 8.39 µM | [13] 4.41 µM | [15] 22 µM | [16] > 100 µM | [17] 13.8 µM | [18] 29.4 µM | [19] > 100 µM

COC(=O)c1cc(Br)c(Br)n1C
inactive: [1] > 100 µM | [2] > 100 µM | [3] 42.7 µM | [5] > 100 µM | [6] > 100 µM | [7] > 100 µM | [8] > 100 µM | [9] > 100 µM | [10] > 100 µM | [11] 70.3 µM | [12] > 100 µM | [13] 39.4 µM | [14] > 100 µM | [15] > 100 µM | [16] > 100 µM | [17] > 100 µM | [18] > 100 µM | [19] > 100 µM

CCOC(=O)C1Oc2ccc([N+](=O)[O-])c3c2C1(O)CCC3 (configuration not stated)
inactive: [1] > 100 µM | [2] > 100 µM | [3] > 100 µM | [4] > 100 µM | [5] > 100 µM | [6] > 100 µM | [7] > 100 µM | [8] > 100 µM | [9] > 100 µM | [10] > 100 µM | [11] > 100 µM | [12] > 100 µM | [13] > 100 µM | [14] > 100 µM | [16] > 100 µM | [17] > 100 µM | [18] > 100 µM | [19] > 100 µM

CC1=C(C#N)C(N)=C2C(C)=C(C#N)C(N)=C12
inactive: [1] > 100 µM | [2] > 100 µM | [3] > 100 µM | [5] > 100 µM | [6] > 100 µM | [7] > 100 µM | [8] > 100 µM | [9] > 100 µM | [10] > 100 µM | [11] > 100 µM | [12] > 100 µM | [13] > 100 µM | [14] > 100 µM | [15] > 100 µM | [16] > 100 µM | [17] > 100 µM | [18] > 100 µM | [19] > 100 µM
